This note sets out measurements from patent publication US12565673B2, “Methods for the design of nonallosteric sirtuin activating compounds” (Chakrabarti Advanced Technology, LLC, priority 2020, dated 2026).

Bounds are passed on as bounds.

In this assay the target is T1, hSirt3^102-399 (Homo sapiens, UniProt Q9NTG7).
T1 construct: hSirt3^102-399 was expressed in E. coli Arctic Express (DE3) cells; His-tag (only implied by the HisTrap / imidazole purification); made in house; host or cells: E. coli Arctic Express (DE3)
T1 sequence (Q9NTG7 102-399): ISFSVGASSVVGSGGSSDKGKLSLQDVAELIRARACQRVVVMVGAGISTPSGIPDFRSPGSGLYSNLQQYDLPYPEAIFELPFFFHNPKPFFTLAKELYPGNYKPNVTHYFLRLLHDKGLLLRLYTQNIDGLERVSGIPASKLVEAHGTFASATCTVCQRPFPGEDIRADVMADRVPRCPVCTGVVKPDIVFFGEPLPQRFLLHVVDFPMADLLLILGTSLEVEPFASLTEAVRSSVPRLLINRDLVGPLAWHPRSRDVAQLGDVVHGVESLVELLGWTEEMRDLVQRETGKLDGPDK
The assay can be described thus: hSirt3 ligand binding assay by microscale thermophoresis (MST). As to conditions: Sirt3.Ac-MnSOD complex (FIG. 9). On the technique in general: MST reads how a fluorescent partner responds to local heating, with and without ligand.

Experimental: The binding affinities of ligands to complexes in the catalytic mechanism of SIRT3/MnSOD peptide substrate were measured using microscale thermophoresis (MST; FIG. 9, FIG. 10).
Briefly, the protein conjugation was done in 1×PBS pH 7.4, 0.05% Pluronic F-127, and the labeled protein was buffer exchanged into 47 mM Tris-HCl pH 8.0, 129 mM NaCl, 2.5 mM KCl, 0.94 mM MgCl2, 5% DMSO, 0.05% Tween-20. We used 2 nM labeled hSirt3 and titrated with varying concentrations of the modulators in the absence and presence of various concentrations of substrates, products and intermediates. The thermophoresis was measured (excitation/emission 653/672 nm) using a Monolith NT. […] Dissociation constants (Kd) were determined using GraFit7 (Erithacus Software) by nonlinear fitting.

What is called Kd is the constant that tells how readily two partners part at equilibrium. With `C=CCc1ccc(O)c(-c2ccc(O)c(CC=C)c2)c1` [HKL, 5, 3′-Diallyl-2, 4′-dihydroxybiphenyl], the Kd was below 10 µM.
